Laboratory results reported in PubChem BioAssay (NCI).
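Grown in 96-well plates, cells were treated for 48 hours with each compound at five concentrations. Insufficient inhibition: endpoint recorded as highest concentration tested. TGI: total growth inhibition.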

What was measured:
Assay in all cases: inhibition of tumour cell growth, NCI panel, 48 h
A549 NSCLC = tested on: A549 NSCLC
OVCAR-4 ovarian = tested on: OVCAR-4 ovarian
SF-539 CNS = tested on: SF-539 CNS
HOP-62 NSCLC = tested on: HOP-62 NSCLC
RPMI-8226 leukemia = tested on: RPMI-8226 leukemia
LOX IMVI melanoma = tested on: LOX IMVI melanoma
NCI/ADR-RES ovarian = tested on: NCI/ADR-RES ovarian
NCI-H226 lung = tested on: NCI-H226 lung
UO-31 renal = tested on: UO-31 renal
PC-3 prostate = tested on: PC-3 prostate
A498 renal = tested on: A498 renal
K-562 leukemia = tested on: K-562 leukemia

`Oc1ccccc1C=Nc1ccc(Oc2ccc(Cl)cc2)c(Cl)c1` was tested, and the TGI (A549 NSCLC) was 58.7 µM, the TGI (OVCAR-4 ovarian) was 66.2 µM and the TGI (SF-539 CNS) was 58.7 µM. It also gave a TGI (HOP-62 NSCLC) of 34.7 µM, a TGI (RPMI-8226 leukemia) of 81.1 µM and a TGI (LOX IMVI melanoma) of 41 µM. It also gave a TGI (NCI/ADR-RES ovarian) of 47.5 µM, a TGI (NCI-H226 lung) of 93.9 µM and a TGI (UO-31 renal) of 24.2 µM. It also gave a TGI (PC-3 prostate) of 53.6 µM and a TGI (A498 renal) of 33.7 µM.

With `Fc1ccc(C(OCCN2CCC3CCC(C2)N3CCCc2ccccc2)c2ccc(F)cc2)cc1` (stereo unspecified) the TGI (A549 NSCLC) was 19.4 µM, the TGI (OVCAR-4 ovarian) was 22.3 µM and the TGI (SF-539 CNS) was 2.82 µM. The TGI (HOP-62 NSCLC) was 23.3 µM, the TGI (RPMI-8226 leukemia) was 5.11 µM and the TGI (K-562 leukemia) was 5.8 µM. It also gave a TGI (LOX IMVI melanoma) of 13.8 µM, a TGI (NCI/ADR-RES ovarian) of 13.7 µM and a TGI (NCI-H226 lung) of 15.1 µM. For the same compound, the TGI (UO-31 renal) was 16.3 µM, the TGI (PC-3 prostate) was 11.4 µM and the TGI (A498 renal) was 11.8 µM.

`CC[C@@]1(O)C(=O)OCc2c1c(Cl)c1n(c2=O)Cc2cc3ccccc3nc2-1` was tested, and the TGI (A549 NSCLC) was > 63.2 µM, the TGI (OVCAR-4 ovarian) was 63.1 µM and the TGI (SF-539 CNS) was 6.09 µM. For the same compound, the TGI (HOP-62 NSCLC) was 8.03 µM, the TGI (RPMI-8226 leukemia) was > 100 µM and the TGI (K-562 leukemia) was > 100 µM. It also gave a TGI (LOX IMVI melanoma) of 4.01 µM, a TGI (NCI/ADR-RES ovarian) of 15.1 µM and a TGI (NCI-H226 lung) of 31.2 µM. For the same compound, the TGI (UO-31 renal) was 9.22 µM, the TGI (PC-3 prostate) was > 100 µM and the TGI (A498 renal) was 8.45 µM.

With `COc1ccc(/C=C/C(=O)NCC(NC(=O)/C=C/c2ccc(OC)c(OC)c2)C(=O)O)cc1OC` (stereo unspecified) the TGI (A549 NSCLC) was > 100 µM, the TGI (OVCAR-4 ovarian) was > 100 µM and the TGI (SF-539 CNS) was > 100 µM. The TGI (HOP-62 NSCLC) was > 100 µM, the TGI (RPMI-8226 leukemia) was > 100 µM and the TGI (K-562 leukemia) was > 100 µM. The TGI (LOX IMVI melanoma) was > 100 µM, the TGI (NCI/ADR-RES ovarian) was 0.0691 µM and the TGI (NCI-H226 lung) was > 100 µM. For the same compound, the TGI (UO-31 renal) was > 100 µM, the TGI (PC-3 prostate) was > 100 µM and the TGI (A498 renal) was > 100 µM.

For `COc1ccc(NC=O)c(C(O)CCNC(C)=O)c1` (stereo unspecified), the TGI (A549 NSCLC) was > 100 µM, the TGI (OVCAR-4 ovarian) was > 100 µM and the TGI (SF-539 CNS) was > 100 µM. For the same compound, the TGI (RPMI-8226 leukemia) was > 100 µM, the TGI (K-562 leukemia) was > 100 µM and the TGI (LOX IMVI melanoma) was > 100 µM. For the same compound, the TGI (NCI/ADR-RES ovarian) was > 100 µM, the TGI (NCI-H226 lung) was > 100 µM and the TGI (UO-31 renal) was > 100 µM. For the same compound, the TGI (PC-3 prostate) was > 100 µM and the TGI (A498 renal) was > 100 µM.

In the case of `N#Cc1c(-c2ccccc2)c(C#N)c(=O)n(NS(=O)(=O)c2ccccc2)c1O`, the TGI (A549 NSCLC) is reported as > 100 µM, the TGI (OVCAR-4 ovarian) is reported as > 100 µM and the TGI (SF-539 CNS) is reported as > 100 µM. The TGI (HOP-62 NSCLC) was > 100 µM, the TGI (RPMI-8226 leukemia) was > 100 µM and the TGI (K-562 leukemia) was > 100 µM. The TGI (LOX IMVI melanoma) was > 100 µM, the TGI (NCI/ADR-RES ovarian) was > 100 µM and the TGI (NCI-H226 lung) was > 100 µM. The TGI (PC-3 prostate) was > 100 µM and the TGI (A498 renal) was > 100 µM.

Compound `CCN(CC)c1ccc(/C=C/C2=NN(c3cccc(S(=O)(=O)O)c3)C3(C2)C(Cl)C(=O)N3c2nc3ccccc3s2)cc1` (stereo unspecified) has a TGI (A549 NSCLC) of 28.7 µM, a TGI (OVCAR-4 ovarian) of 9.83 µM and a TGI (SF-539 CNS) of 10.6 µM. It also gave a TGI (HOP-62 NSCLC) of 22.9 µM, a TGI (RPMI-8226 leukemia) of 6.89 µM and a TGI (K-562 leukemia) of 49.8 µM. The TGI (LOX IMVI melanoma) was 9.12 µM, the TGI (NCI/ADR-RES ovarian) was > 79.3 µM and the TGI (NCI-H226 lung) was 34.2 µM. For the same compound, the TGI (UO-31 renal) was 3.6 µM, the TGI (PC-3 prostate) was 25.1 µM and the TGI (A498 renal) was 24.8 µM.

`CN(CCO)CC(=O)CC(O)(C(F)(F)F)C(F)(F)F` was tested, and the TGI (A549 NSCLC) was > 100 µM, the TGI (OVCAR-4 ovarian) was > 100 µM and the TGI (SF-539 CNS) was > 100 µM. For the same compound, the TGI (RPMI-8226 leukemia) was > 100 µM, the TGI (K-562 leukemia) was > 100 µM and the TGI (LOX IMVI melanoma) was 86.3 µM. The TGI (NCI/ADR-RES ovarian) was > 100 µM, the TGI (NCI-H226 lung) was > 100 µM and the TGI (UO-31 renal) was > 100 µM. The TGI (PC-3 prostate) was 82.8 µM and the TGI (A498 renal) was > 100 µM.

`COc1ccc(CSCc2cc(OC)c(OC)c(OC)c2)cc1` was tested, and the TGI (A549 NSCLC) was > 100 µM, the TGI (OVCAR-4 ovarian) was > 100 µM and the TGI (SF-539 CNS) was > 100 µM. For the same compound, the TGI (HOP-62 NSCLC) was > 100 µM, the TGI (RPMI-8226 leukemia) was > 100 µM and the TGI (K-562 leukemia) was > 100 µM. For the same compound, the TGI (LOX IMVI melanoma) was > 31.6 µM, the TGI (NCI/ADR-RES ovarian) was > 31.6 µM and the TGI (NCI-H226 lung) was > 100 µM. The TGI (UO-31 renal) was > 100 µM, the TGI (PC-3 prostate) was > 31.6 µM and the TGI (A498 renal) was > 100 µM.

In the case of `CCOC(=O)CNC(=O)C(CSC(=O)N(O)c1ccc(Br)cc1)NC(=O)CCC(N)C(=O)OCC` (stereo unspecified), the TGI (A549 NSCLC) is reported as > 50 µM, the TGI (OVCAR-4 ovarian) is reported as > 50 µM and the TGI (SF-539 CNS) is reported as > 50 µM. For the same compound, the TGI (HOP-62 NSCLC) was > 50 µM, the TGI (RPMI-8226 leukemia) was > 50 µM and the TGI (K-562 leukemia) was > 50 µM. For the same compound, the TGI (LOX IMVI melanoma) was > 50 µM, the TGI (NCI/ADR-RES ovarian) was > 50 µM and the TGI (NCI-H226 lung) was > 50 µM. The TGI (UO-31 renal) was > 50 µM, the TGI (PC-3 prostate) was > 50 µM and the TGI (A498 renal) was > 50 µM.
